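Values below derive from 48-hour exposures of cells grown in 96-well plates, with endpoints linearly interpolated between the two concentrations bracketing the appropriate inhibition level. The concentration for 50% growth inhibition is given as GI50.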 The source made the active and inactive calls. Rule as the data show it: active = GI50 up to about 1.1 µM and inactive = higher.
Experiments:
Experiment in all cases: NCI anticancer screen, dose series, 48 h
[1] = tested on: SNB-19
[2] = tested on: MOLT-4
[3] = tested on: SNB-75
[4] = tested on: ACHN
[5] = tested on: M14
[6] = tested on: NCI-H23
[7] = tested on: OVCAR-5
[8] = tested on: NCI-H226
[9] = tested on: MDA-N
[10] = tested on: SK-MEL-2
[11] = tested on: CCRF-CEM
[12] = tested on: RXF 393
[13] = tested on: SF-295
[14] = tested on: HCC 2998
[15] = tested on: NCI-H460
[16] = tested on: BT-549
[17] = tested on: NCI-H522
[18] = tested on: MCF7
[19] = tested on: SF-268
[20] = tested on: LOX IMVI
[21] = tested on: SW-620
[22] = tested on: SN12C
[23] = tested on: UACC-257
[24] = tested on: A549
[25] = tested on: TK-10
[26] = tested on: K562
[27] = tested on: CAKI-1
[28] = tested on: 786-0
[29] = tested on: UO-31
[30] = tested on: OVCAR-3
[31] = tested on: HL-60
[32] = tested on: DU-145
[33] = tested on: HCT-15
[34] = tested on: HOP-92
[35] = tested on: SK-MEL-5
[36] = tested on: KM12
[37] = tested on: PC-3
[38] = tested on: HT-29
[39] = tested on: HCT-116
[40] = tested on: SF-539
[41] = tested on: COLO 205
[42] = tested on: U-251
[43] = tested on: MDA-MB-435
[44] = tested on: A498
[45] = tested on: T47D
[46] = tested on: UACC-62
[47] = tested on: NCI/ADR-RES
[48] = tested on: SR
[49] = tested on: OVCAR-8
[50] = tested on: EKVX
[51] = tested on: Hs-578T
[52] = tested on: IGROV-1
[53] = tested on: MDA-MB-231
[54] = tested on: OVCAR-4
[55] = tested on: Malme-3M
[56] = tested on: HOP-62
[57] = tested on: SK-OV-3

In the case of `CSc1ccn(C2CC(F)C(CO)O2)c(=O)n1` (configuration not stated), the GI50 [1] is reported as > 100 µM (inactive), the GI50 [2] is reported as > 100 µM (inactive) and the GI50 [3] is reported as > 100 µM (inactive). The GI50 [4] was > 100 µM (inactive), the GI50 [5] was > 100 µM (inactive) and the GI50 [6] was > 100 µM (inactive). The GI50 [7] was > 100 µM (inactive), the GI50 [8] was > 100 µM (inactive) and the GI50 [9] was > 100 µM (inactive). The GI50 [10] was > 100 µM (inactive), the GI50 [11] was > 100 µM (inactive) and the GI50 [12] was > 100 µM (inactive). The GI50 [13] was > 100 µM (inactive), the GI50 [14] was > 100 µM (inactive) and the GI50 [15] was > 100 µM (inactive). The GI50 [16] was > 100 µM (inactive), the GI50 [17] was > 100 µM (inactive) and the GI50 [18] was > 100 µM (inactive). The GI50 [19] was > 100 µM (inactive), the GI50 [20] was > 100 µM (inactive) and the GI50 [21] was > 100 µM (inactive). For the same molecule, the GI50 [22] was > 100 µM (inactive), the GI50 [23] was > 100 µM (inactive) and the GI50 [24] was > 100 µM (inactive). For the same molecule, the GI50 [25] was > 100 µM (inactive), the GI50 [26] was > 100 µM (inactive) and the GI50 [27] was > 100 µM (inactive). For the same molecule, the GI50 [28] was > 100 µM (inactive), the GI50 [29] was > 100 µM (inactive) and the GI50 [30] was > 100 µM (inactive). The GI50 [31] was > 100 µM (inactive), the GI50 [32] was > 100 µM (inactive) and the GI50 [33] was greater than 100 µM. The GI50 [34] was > 100 µM (inactive), the GI50 [35] was > 100 µM (inactive) and the GI50 [36] was > 100 µM (inactive). For the same molecule, the GI50 [37] was > 100 µM (inactive), the GI50 [38] was > 100 µM (inactive) and the GI50 [39] was > 100 µM (inactive). The GI50 [40] was > 100 µM (inactive), the GI50 [41] was > 100 µM (inactive) and the GI50 [42] was > 100 µM (inactive). The GI50 [43] was > 100 µM (inactive), the GI50 [44] was > 100 µM (inactive) and the GI50 [45] was > 100 µM (inactive). The GI50 [46] was > 100 µM (inactive), the GI50 [47] was > 100 µM (inactive) and the GI50 [48] was > 100 µM (inactive). The GI50 [49] was > 100 µM (inactive), the GI50 [50] was > 100 µM (inactive) and the GI50 [51] was > 100 µM (inactive). For the same molecule, the GI50 [52] was > 100 µM (inactive), the GI50 [53] was > 100 µM (inactive) and the GI50 [54] was > 100 µM (inactive). For the same molecule, the GI50 [55] was > 100 µM (inactive), the GI50 [56] was > 100 µM (inactive) and the GI50 [57] was > 100 µM (inactive).
